# Where two headings read alike, the source gives them in different places. Marks after values point to notes of the source that are not given here. Ends that are not written are not given here. Peptide text beside a SMILES is read from it.
# Assays:
# [1] = DPPH radical scavenging activity; details: 1 mg/mL, 0.2 mmol/L DPPH, 30 min room temperature, absorbance 517 nm, mean ± SD
# Procedure: (§1) The antioxidant activity of the target peptides was evaluated by detecting the hydroxyl radical scavenging activity (∙OH), DPPH radical scavenging activity, and Fe^2+ chelating ability; the method was performed according to Zhu et al. with some modifications.
# Measurement of the DPPH radical scavenging activity. One mL of the LPLPFP (dissolved in deionized water) was mixed with 1 mL of 0.2 mmol/L DPPH (in 95% ethanol) as the sample group; 1 mL of deionized water was mixed with 1 mL of ethanol (95%) as the blank group; and 1 mL of 0.2 mmol/L DPPH was mixed with 1 mL of ethanol (95%) as the control group. The mixture was agitated using a vortex and incubated for 30 min at room temperature, protected from light, and then the absorbance at 517 nm was measured. The scavenging activity of LPLPFP and BHT was calculated using the following equation:DPPH radical scavenging activity (%) = 1 − [ (As − Ac) ÷ (Ab − Ac)] × 100% where As, Ac, and Ab represent the absorbance of the sample, the control, and the blank groups, respectively. BHT was used as a positive control.
# [2] = ∙OH radical scavenging activity; details: 1 mg/mL, 37 °C 60 min, absorbance 536 nm, mean ± SD
# Procedure: as §1
# Measurement of the ∙OH radical scavenging activity. The sample group was a mixture of 0.6 mL of 1, 10-phenanthroline monohydrate (5 mmol/L) and 0.4 mL of phosphate buffer (0.2 M, pH 7.4), and then 0.6 mL of LPLPFP (1 mg/mL), 0.6 mL of EDTA (15 mmol/L), and 0.6 mL of FeSO4 (5 mmol/L) were mixed thoroughly. After mixing, 0.8 mL of H2O2 (0.1%) was added and incubated at 37 °C for 60 min. Afterward, the mixture absorbance was measured at 536 nm with the multifunctional microplate reader. The control group contained the same solutions as the sample group, except deionized water was used instead of the sample. The blank group contained the same solution as the control group, except deionized water was used instead of H2O2. The results were determined according to the equation. hydroxyl radical scavenging activity (%) = (As − Ac) ÷ (Ab − Ac) × 100% where As, Ac, and Ab represent the absorbance of the sample and the control and blank groups, respectively. BHT was used as a positive control.
# [3] = Fe^2+ chelating ability; details: 1 mg/mL, ferrozine, 10 min room temperature, absorbance 562 nm, mean ± SD
# Procedure: as §1
# Measurement of the Fe^2+ chelating ability. Briefly, 1 mL of LPLPFP was mixed with 0.05 mL of FeCl2 (2 mmol/L) and 0.2 mL of ferrozine (5 mmol/L). The mixture was vortexed and kept at room temperature for 10 min prior to the measurement of the absorbance at 562 nm (As). The control (Ac) contained everything except using deionized water instead of LPLPFP. The chelating ability was calculated according to the equation Fe^2+chelating ability (%) = (Ac − As) ÷ Ac × 100% where As and Ac represent the absorbance of the sample and the control groups. BHT was used as a positive control.
# [4] = test system: pepsin and trypsin; test: Pepsin-trypsin simulated GI digestion stability; type: in vitro ADME; details: 400 μg/mL peptide; simulated gastric juice (pepsin, pH 3.0) 37 °C 2 h, then simulated intestinal fluid (trypsin, bile salt) 2 h; read-out: retained hepatoprotective activity (ALT, AST, MDA) in HHL-5 model
# Procedure: The stability of LPLPFP in response to pepsin and trypsin in the simulation of GI digestion in vitro was examined based on Xie et al.. A 1 L ultrapure water solution containing 2 g of NaCl and 3.2 g of pepsin (3000 U/mg protein) with a pH of 3.0 (adjusted with a 6 mol/L HCl solution), was configured as simulated gastric juice. In addition, 0.68 g of potassium dihydrogen phosphate, 7.7 mL of 0.2 mol/L NaOH solution, 1 g of trypsin (285 U/mg protein), and 6 g of bile salt were added and dissolved in 70 mL of ultrapure water with a pH of 7.6 (adjusted with a 0.2 mol/L NaOH solution) and the volume was filled with ultrapure water up to 1 L (as simulated intestinal fluid). The 400 μg/mL of peptide solution at pH 3.0 (adjusted with a 1 mol/L HCl solution) and 5 mL of simulated gastric juice was mixed and shaken at 37 °C for 2 h to simulate gastric digestion, then the mixture was terminated by being heated at 100 °C for 10 min, the pH was adjusted to 7.2 with a 0.2 mol/L NaOH solution, and 5 mL of simulated intestinal juice was added to the solution, and the same conditions were used for simulating intestinal digestion. Finally, the digestive liquid was transferred to the ultrafiltration centrifuge tube (1 kDa) and centrifuged at 4 °C, 8500× g for 20 min; the filtered solutions were desalted by a polar enhanced polymer (PEP) column (500 mg/6 mL) and dried in a vacuum freeze-dryer.
# [5] = test system: HHL-5 hepatocytes; test: H2O2 level in alcohol-mediated HHL-5 hepatocytes; type: cell-based, human; details: alcohol alone (EtOH model group)
# Procedure: The cell suspension was inoculated into 96-well plates (4 × 10^3 per well) and added to the culture medium containing: DMEM-F12 (1:1, HyClone, Logan, UT, USA), 10% FBS (Gibco, New York, NY, USA), 1% P/S (100 U/L), 15 mmol/L of HEPES, and 2.5 mmol/L of L-glutamine, then the plates with cells were placed in a 5% CO2 humidified atmosphere at 37 °C for 24 h. […] Furthermore, HHL-5 hepatocytes were cultured with different concentrations of GLHP (100 μg/mL, 200 μg/mL, 300 μg/mL, 400 μg/mL, and 500 μg/mL) to evaluate the cytotoxicity of GLHP, as described above. The ability of GLHP to protect HHL-5 hepatocytes was evaluated. […] In the CTRL group, a culture medium supplemented with an equal volume of the PBS was added and incubated for 12 h, and the culture medium was then substituted with an equal volume of the PBS and incubated for 48 h. Finally, the culture media and cells were collected for further analysis.
# [6] = test system: HHL-5 hepatocytes; test: Cell viability by Cell Counting Kit-8
# Procedure: Furthermore, HHL-5 hepatocytes were cultured with different concentrations of GLHP (100 μg/mL, 200 μg/mL, 300 μg/mL, 400 μg/mL, and 500 μg/mL) to evaluate the cytotoxicity of GLHP, as described above. The ability of GLHP to protect HHL-5 hepatocytes was evaluated. […] In the CTRL group, a culture medium supplemented with an equal volume of the PBS was added and incubated for 12 h, and the culture medium was then substituted with an equal volume of the PBS and incubated for 48 h. Finally, the culture media and cells were collected for further analysis.
# The Cell Counting Kit-8 (CCK-8, Beijing Solarbio Science and Technology Co., Ltd., Beijing, China) was used to assess the HH-5 cell viability; the testing procedures were performed according to the manufacturer’s protocol. Adherent cells in 96-well culture plates were treated and then incubated with a CCK solution for 2 h; the absorbance was detected at a wavelength of 450 nm with the multifunctional microplate reader.
# [7] = test system: HHL-5 hepatocytes; test: ROS level in alcohol-mediated HHL-5 hepatocytes (DCFH-DA); type: cell-based, human; details: alcohol alone (EtOH model group)
# Procedure: (§2) Cells were collected with PBS, the activity of ALT (C009-2-1), AST (C0010-2-1), and MDA (A003-1) in cell supernatant and the SOD (A001-3), GSH-Px (A005), CAT (A007-1-1), and ROS (E004-1-1) in the cells were measured using corresponding assay kits (Nanjing Jiancheng Biotechnology Institute, Nanjing, China) according to the manufacturer’s instructions.
# ROS: A DCFH-DA probe was added directly to the serum-free medium: DCFH-DA was generally diluted with a serum-free medium at a final concentration of 10 µM at 1:1000. After removing the culture medium, an appropriate volume of diluted DCFH-DA was added. The volume added should be sufficient to cover the cells. Usually, no less than 1 mL of diluted DCFH-DA is added to one well of a 6-well plate. A sample of cells without a probe and with a medium only was set as negative for the control. Positive control: take a sample of cells with a probe and add reactive oxygen species to induce the cells. The cells were incubated at 37 °C for 20 min […] (mixed upside down every 5 min to make full contact between the probe and cell). […] In general, an obvious green fluorescence can be observed in the positive control cells after 30 min of stimulation. […] It can also be detected according to FITC fluorescence detection conditions. The results were expressed as fluorescence values.
# [8] = test system: HHL-5 hepatocytes; test: CAT activity in alcohol-mediated HHL-5 hepatocytes; type: cell-based, human; details: alcohol alone (EtOH model group)
# Procedure: as §2
# CAT: 0.05 mL of sample was mixed with 1.0 mL reagent one, 0.1 mL reagent two and performed at 37 °C for 1 min. Then, 1.0 mL reagent three and 0.1 mL reagent four were mixed with the miscible liquids. The absorbance value was measured at 405 nm wavelength by a multifunctional microplate reader.
# [9] = test system: HHL-5 hepatocytes; test: SOD activity in alcohol-mediated HHL-5 hepatocytes; type: cell-based, human; details: alcohol alone (EtOH model group)
# Procedure: as §2
# SOD: 20 μL of sample was mixed with 20 μL enzyme working liquid and 200 μL of substrate application solution. Then, miscible liquids were performed at 37 °C for 20 min. The absorbance values of the miscible liquids were measured at a 450 nm wavelength by a multifunctional microplate reader.
# [10] = test system: HHL-5 hepatocytes; test: GSH-Px activity in alcohol-mediated HHL-5 hepatocytes; type: cell-based, human; details: alcohol alone (EtOH model group)
# Procedure: as §2
# GSH-Px: 0.2 mL of sample was mixed with 0.2 mL of […] and performed at 37 °C for 5 min. Then, 0.1 mL of reagent one was added and performed at 37 °C for 5 min. Subsequently, the miscible liquids were centrifuged at 4 °C, 3500× g for 10 min. One mL of supernatant was mixed with 1 mL of reagent three, 0.25 mL of reagent four, and 0.05 mL of reagent five and performed at room temperature for 15 min. The absorbance value was measured at a 412 nm wavelength by a multifunctional microplate reader.
# [11] = test system: HHL-5 hepatocytes; test: AST level in model of alcohol-mediated HHL-5 hepatocytes damage; type: cell-based, human; details: alcohol 500 mmol/L, 48 h, no peptide pre-treatment (model group)
# Procedure: as §2
# ALT and AST: 5 μL of sample was mixed with 20μL of ALT/AST matrix solution and the reaction was performed at 37 °C for 30 min. Then, 20 μL of 2, 4-dinitrophenylhydrazine solution was added and the reaction was performed at 37 °C for 20 min. Finally, 200 μL of sodium hydroxide solution (0.4 mol/L) was added and the reaction was performed at room temperature for 15 min. The absorbance value was measured at a 510 nm wavelength by a multifunctional microplate reader.
# [12] = test system: HHL-5 hepatocytes; test: MDA level in model of alcohol-mediated HHL-5 hepatocytes damage; type: cell-based, human; details: alcohol 500 mmol/L, 48 h, no peptide pre-treatment (model group)
# Procedure: as §2
# MDA: 0.1 mL of sample was mixed with 0.1 mL of reagent one, 3 mL of reagent two, and 1 mL of reagent three in the 10 mL centrifuge tube. Then, the centrifuge tube was centrifuged at 4 °C, 3500× g for 10 min after being heated in a boiling water bath for 40 min. The absorbance value of 200 μL of the supernatant was measured at a 532 nm wavelength by a multifunctional microplate reader.
# [13] = cited from earlier work
# From the text: Typically, oligopeptides containing 2 to 10 amino acid residues are considered to have a higher antioxidant activity compared with their parent protein [14]. Free radicals, linked to oxidative stress, are highly reactive with other molecules, including vital DNA and proteins, the destruction of which can damage or kill cells. Among the many free radicals, the ∙OH radical is commonly considered as one of the most harmful highly react ...
compound,measurement,setting,value
Cc1cc(C(C)(C)C)c(O)c(C(C)(C)C)c1 [BHT],DPPH Radical Scavenging Activity (%),[1],90.56 ± 1.73 ^b %
same,∙OH Radical Scavenging Activity (%),[2],79.38 ± 2.03 ^b %
same,Fe^2+ Chelating Ability (%),[3],14.39 ± 2.46 ^b %
"CC(C)C[C@H](NC(=O)[C@@H]1CCCN1C(=O)[C@@H](N)CC(C)C)C(=O)N1CCC[C@H]1C(=O)N[C@@H](Cc1ccccc1)C(=O)N1CCC[C@H]1C(=O)O [LPLPFP, Leu-Pro-Leu-Pro-Phe-Pro] (H-LPLPFP-OH)",resistance to pepsin-trypsin simulated GI digestion,[4],strong resistance
"CCO [alcohol, anhydrous ethanol]",level of H2O2 after stimulation with alcohol,[5],43860 ± 3570 µM
same,viability of HHL-5 hepatocytes,"[6]; 500 mmol/L alcohol, 48 h, CCK-8, mean ± SD, at least triplicates",approximately 49.28 ± 5.12%
same,median lethal dose of alcohol for HHL-5 hepatocytes (LD50),"[6]; 48 h incubation, CCK-8",500 mmol/L
same,level of ROS after stimulation with alcohol,[7],95.23 ± 6.54 U/mg prot
same,level of CAT after administration of alcohol,[8],24.87 ± 3.28 U/mg prot
same,level of SOD after administration of alcohol,[9],31.28 ± 4.53 U/mg prot
same,level of GSH-Px after administration of alcohol,[10],49.26 ± 4.82 U/mg prot
same,level of AST in the EtOH group,[11],376.57 ± 32.83 U/L
same,level of MDA in the EtOH group,[12],2.436e+07 ± 2.85e+06 µM
Gly-Lys-Phe-Asn-Val,Fe^2+ chelating ability (source: scavenging rate of Fe^2+),[13]; 1 mg/mL ref 16,63.20%
NPPKFD,Fe^2+ chelating ability (source: scavenging rate of Fe^2+),[13]; 1 mg/mL ref 3,66.92%

# Reference: article PMC9655001, “Isolation and Identification of Antioxidative Peptide from Goose Liver Hydrolysate to Ameliorate Alcohol-Mediated Oxidative Stress Damage in HHL-5 Hepatocytes” (Molecules, 2022)
